The conditions of data set [1]: cited from earlier work.
Data set [2] is described as follows: Solubility of kynurenic acid and its sodium salt. The note with it: water, converted from 100 mM, read-out: solubility in water, corresponding value. In kind it is physicochemical.

Consider two compounds from US11452309B2, “Formula of preparations for oral and/or enteral feeding of children” (priority 2017, dated 2022).

Values after ≈ are worked out from the molar mass of the structure shown. Counter-ions that a name gives are not always drawn. Like-named read-outs stand apart in the source and are kept apart here.

Turning to `O=C(O)c1cc(=O)c2ccccc2[nH]1` [kynurenic acid], the “solubility in 1.0 M NaOH” value in data set [1] (alkaline conditions, 1.0 M NaOH) is 50 mg/mL (≈ 264 mM). In addition, in data set [1], the solubility in water was 0.95 mg/mL.
As to `O=C(O)c1cc(=O)c2ccccc2[nH]1` [sodium salt], the solubility in data set [2] was 21 mg/mL. For the same compound, the solubility in water in data set [1] (sodium salt) is given as 100 mM.

A word on the solubility: it is how much of the substance goes into solution per volume.
